Results taken from US7732607B2 (priority 2005, dated 2010).

molecular target: human M3 receptors (Homo sapiens, UniProt P20309); format: binding; conditions: human clonal line TE671/RD
Sequence (P20309 whole entry): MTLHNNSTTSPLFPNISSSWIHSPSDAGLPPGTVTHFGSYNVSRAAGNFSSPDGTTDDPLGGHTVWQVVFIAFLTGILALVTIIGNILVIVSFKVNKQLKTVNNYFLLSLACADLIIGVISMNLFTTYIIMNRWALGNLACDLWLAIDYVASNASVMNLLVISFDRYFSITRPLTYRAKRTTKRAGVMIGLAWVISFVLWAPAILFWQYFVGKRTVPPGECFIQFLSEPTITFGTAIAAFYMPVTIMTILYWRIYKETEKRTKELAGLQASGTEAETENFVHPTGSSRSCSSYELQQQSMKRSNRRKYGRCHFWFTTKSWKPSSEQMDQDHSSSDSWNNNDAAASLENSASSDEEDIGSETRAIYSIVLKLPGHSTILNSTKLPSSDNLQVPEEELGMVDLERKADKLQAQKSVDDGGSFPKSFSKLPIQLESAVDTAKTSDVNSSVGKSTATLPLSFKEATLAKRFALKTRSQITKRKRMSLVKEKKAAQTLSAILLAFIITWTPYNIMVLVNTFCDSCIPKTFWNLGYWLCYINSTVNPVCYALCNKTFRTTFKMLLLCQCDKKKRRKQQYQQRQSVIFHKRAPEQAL

SMILES	ability to inhibit [3H]QNB binding at muscarinic sites
COc1cccc2cc(C(=O)N3CC(c4cccnc4)C4C3C3CCN4CC3)oc12 (stereo not drawn) [Compound 2, 5-(7-Methoxybenzofuran-2-ylcarbonyl)-3-pyridin-3-yl-1,5-diazatricyclo[5.2.2.0<2,6>]undecane]	None of the compounds was able to inhibit [^3H]QNB binding
O=C(c1cc2ccccc2o1)N1CC(c2cccnc2)C2C1C1CCN2CC1 (stereo not drawn) [Compound 1, 5-(Benzofuran-2-ylcarbonyl)-3-pyridin-3-yl-1,5-diazatricyclo[5.2.2.0<2,6>]undecane]	None of the compounds was able to inhibit [^3H]QNB binding
O=C(c1c[nH]c2ccccc12)N1CC(c2cccnc2)C2C1C1CCN2CC1 (stereo not drawn) [Compound 4, 5-(1H-Indol-3-ylcarbonyl)-3-pyridin-3-yl-1,5-diazatricyclo[5.2.2.0<2,6>]undecane]	None of the compounds was able to inhibit [^3H]QNB binding
